Results published in US20200199230A1, “TREATMENT METHOD” (Hoffmann-La Roche Inc., priority 2017, published 2020).

Experiments:
[1] = system: tumor inflammation-related adverse effects; details: preliminary data; confirmed PR and SD observed in patients given prophylaxis
IL-6 = test: Biomarker analysis: IL-6 after administration; assay type: in vivo, human; details: most patients; after the first administration
Procedure: (§1) Methods: In 2 ongoing dose-escalation phase I studies, CEA-TCB is given as monotherapy IV QW (S1) or in combination (QW) with atezolizumab 1200 mg Q3W (S2) in patients with advanced CEA positive (≥20% of tumor cells expressing moderate or high) solid tumors. In S1, 80 patients (70 CRC) were treated at dose levels of 0.05-600 mg; in S2, 45 patients (35 CRC) at 5-160 mg (data cut-off 3 Mar. 2017). In addition biomarker analysis and PK assays were conducted.

intratumoral T cells = test: Biomarker analysis of on-treatment tumor biopsies; assay type: in vivo, human
Procedure: as §1

[2] = set-up: species or system human; details: in vivo
Procedure: as §1

tumor cells = details: preclinically; increased intratumoral T-cell infiltration and activation, T-cell-mediated tumor cell killing, PD-L1/PD-1 upregulation; cited from earlier work
[3] = system: advanced CEA positive solid tumors; assay type: in vivo, human
Procedure: In S1, 80 patients (70 CRC) were treated at dose levels of 0.05-600 mg; in S2, 45 patients (35 CRC) at 5-160 mg (data cut-off 3 Mar. 2017). In addition biomarker analysis and PK assays were conducted.

Row | Compound | effect of prophylactic steroid doses on anti-tumor activity of CEA-TCB monotherapy or combination with atezolizumab [1] | IL-6 change (IL-6) | increase in Ki67+ T cells as compared to baseline (intratumoral T cells; S1, doses ≥60 mg, OT biopsies, P=0.035, without dose-dependence) [fold] | intratumoral CD8 T cells (intratumoral T cells; on-treatment) | effect of ADA on drug clearance ([2]; human) | PK linearity [2] | preclinical antitumor activity (tumor cells) | tumor reduction of −10% to −30% (stable disease), share of patients ([3]; S1 monotherapy, doses ≥60 mg, MSS CRC patients, 4 patients) [%] | confirmed partial response (PR; RECIST v1.1), share of CRC patients ([3]; S1 monotherapy, doses ≥60 mg, two of 31 evaluable CRC patients, both MSS) [%] | metabolic PR (FDG PET; EORTC criteria), share of CRC patients ([3]; S1 monotherapy, weeks 4-6, 9 patients) [%] | MTD (maximum tolerated dose) ([3]; human, in vivo, iv) [mg] | patients with dose limiting toxicities (DLTs) ([3]; in vivo) | related adverse event: diarrhea ([3]; in vivo) [%] | related adverse event: infusion-related reactions (IRRs) ([3]; in vivo) [%] | related adverse event: pyrexia ([3]; in vivo) [%] | antitumor activity in advanced CRC ([3]; monotherapy, during dose escalation)
1 | C[C@]12C=CC(=O)C=C1CC[C@@H]1[C@@H]2C(=O)C[C@@]2(C)[C@H]1CC[C@]2(O)C(=O)CO [prednisone] | did not impair the anti-tumor activity | – | – | – | – | – | – | – | – | – | – | – | – | – | – | –
2 | CEA-TCB: novel T-cell bispecific antibody targeting CEA on tumor cells and CD3 on T cells; polypeptides of SEQ ID NO: 25-28 | – | increases in IL-6 | 3.6 | On-treatment increases | ADA increase CEA-TCB drug clearance | almost linear PK | potent antitumor activity | 13 | 6 | 29 | < 600 | Five | 40 | 55 | 58 | Evidence of antitumor activity
